Drawing on paper PMC11435438, “Cyclin-Dependent Kinase 8 Represents a Positive Regulator of Cytomegalovirus Replication and a Novel Host Target for Antiviral Strategies” (Pharmaceutics, 2024), this text covers EC50 for 3 molecules.

One experiment has as its system ChCMV strain Herberling. Nature of the experiment: ChCMV replication assay in HFFs (immunofluorescence). It counts as cell-based, chimpanzee cytomegalovirus. Conditions: in Pan troglodytes, n = 2. An excerpt: (§1) Similarly, 2 × 10^4 primary embryonic guinea pig fibroblasts GPEFs/96-well, or 1.35 × 10^4 HFFs/96-well, or 2 × 10^4 rat REFs/96-well, or 2 × 10^4 murine MEFs/96-well, were cultivated for infection with GPCMV-GFP, RhCMV-GFP, ChCMV, RCMV-mCherry, or MCMV-GFP, respectively (all approx. MOI of 0.01 referring to 1 × TCID25), and were used for the assessment of antiviral drug activity. To this end, cells were fixed 7 d p.i. (RCMV-mCherry 4 d p.i.), before GFP or mCherry expression was quantified using the Victor X4 microplate reader, or other viral replication markers were measured as explained for the individual experiments. ChCMV replication in HFFs was monitored and quantified by the use of Anti-Cytomegalovirus Antibody Alexa Fluor™ 488. For immunofluorescence staining with Anti-Cytomegalovirus Antibody Alexa Fluor™ 488 (Sigma Aldrich, St. Louis, MO, USA; solution in PBS with 1% FCS), the infected cells were fixed at 7 d p.i. with 10% formalin and permeabilized with 0.2% Triton-x-100. Cell nuclei were counterstained using Höchst dye to be measured using the ImageXpress Pico (Molecular Devices, LLC, San Jose, CA, USA). Mean EC50 values of antiviral efficacy were calculated on the basis of three experimental replicates or as indicated (measurement of fluorescence values in quadruplicate), and percentage values were provided relative to the solvent control (DMSO).

A further experiment deals with GPCMV-GFP. Briefly: GPCMV-GFP replication assay in GPEFs. The format is cell-based, guinea pig cytomegalovirus. Conditions: Caviid betaherpesvirus 2, read-out: EC50 GPCMV.
Text: as §1
To address cell viability after compound treatment, a NR uptake assay was performed. Uninfected cells were seeded at equal numbers as for antiviral replication assays and treated with compounds or solvent control. […] NR fluorescence was quantified using the Victor X4 microplate reader (PerkinElmer, Waltham, MA, USA) (560/630 nm). For the AB cell viability assay, which was also used to quantify virus-induced cytopathogenicity (particularly in the case of GPCMV in GPEFs), cells were seeded at equal numbers as for antiviral replication assays and incubated with a medium containing 25 ng/mL AB (resazurin; Ann Arbor, MI, USA), incubated for 6 h at 37 °C, and used for measurement identical with NR.

In another experiment the test system is RhCMV-GFP. Briefly: RhCMV-GFP replication assay in HFFs. Conditions: in Macaca mulatta, read-out: EC50 RhCMV. The format is cell-based, rhesus cytomegalovirus.
Text: as §1

The next experiment relates to HCMV TB40-YFP. Briefly: HCMV TB40-YFP replication assay in HFFs. It counts as cell-based, human cytomegalovirus. Particulars: Human betaherpesvirus 5, HFF, read-out: EC50 TB40-YFP. As to the method: (i.e., 1 × TCID25/7d). Immediately after virus adsorption, the cells were treated with antiviral compounds or solvent control (DMSO). Infections were performed in biological quadruplicates, or as indicated for individual experiments. The cells were fixed by the addition of 150 µL 10% formalin/well 7 d p.i. (Merlin-GFP 14 d p.i.), and washed with PBS. For GFP or YFP quantitation, the Victor X4 microplate reader (PerkinElmer, Waltham, MA, USA) was primarily used, or as a very sensitive alternative, the ImageXpress® Pico device (Molecular Devices LLC, San Jose, CA, USA). Mean EC50 values of antiviral efficacy were calculated on the basis of three experimental replicates or as indicated (measurement of fluorescence values in quadruplicate), and percentage values were provided relative to the solvent control (DMSO).

In general, EC50 refers to the concentration that produces a half-maximal response. Consider `CN(C)C(=O)Cn1cc(-c2ccc(-c3cncc4ccccc34)cc2)cn1` [BI-1347], for which the EC50 turned out to be 11.6 ± 22.6 nM in the experiment with ChCMV strain Herberling, 1.11 ± 2.37 nM in the experiment on GPCMV-GFP, 0.4 ± 0.48 nM in the experiment on RhCMV-GFP and 2.83 ± 2.3 nM with HCMV TB40-YFP.
For `Cn1ncc2cc(-c3cnc(N)c(Cl)c3N3CCC4(CCNC4=O)CC3)ccc21` [CCT-151921], in that order: 31 ± 18 nM, 19.4 ± 33.2 nM, 2.48 ± 1.63 nM and 10 ± 6.33 nM.
In the case of `Cc1n[nH]c2ncc(C(=O)N3CCC[C@H]3c3ccc(Cl)cc3)cc12` [MSC-2530818], the EC50 turned out to be 21 ± 26.5 nM in the experiment on ChCMV strain Herberling, 4.48 ± 4.84 nM in the experiment on GPCMV-GFP, 2.17 ± 1.37 nM in the experiment on RhCMV-GFP and 4.97 ± 3.3 nM with HCMV TB40-YFP.
